The text below walks through data of PubChem BioAssay AID1259407 (Chemical Carcinogenesis Research Information System (CCRIS), 2018).

The test system of this data set is CCRIS mutagenicity, Ames/micronucleus/aberration tests. Briefly: CCRIS mutagenicity studies.
[1] abbreviates: Test System: AMES SALMONELLA TYPHIMURIUM, Strain/Indicator: TA100, Metabolic Activation: NONE, Method: PREINCUBATION
[2] abbreviates: Test System: AMES SALMONELLA TYPHIMURIUM, Strain/Indicator: TA98, Metabolic Activation: NONE, Method: PREINCUBATION
[3] abbreviates: Test System: AMES SALMONELLA TYPHIMURIUM, Strain/Indicator: TA1537, Metabolic Activation: NONE, Method: PREINCUBATION

Molecules are shown by their SMILES. Calls of active or inactive are those of the source. No rule for the calls is given here.

As to `O=[N+]([O-])c1ccc2snc(Cl)c2c1`, for the setting “Test System: AMES SALMONELLA TYPHIMURIUM, Strain/Indicator: TA100, Metabolic Activation: NONE, Method: STANDARD PLATE”, the mutagenic call is “active; positive”.

`O[C@H]1C=Cc2c(ccc3c4c5c(cccc5cc23)C=C4)[C@@H]1O`: the mutagenic call is, setting by setting: (Test System: AMES SALMONELLA TYPHIMURIUM, Strain/Indicator: TA98, Metabolic Activation: NONE, Method: STANDARD PLATE) “inactive; negative”; (Test System: AMES SALMONELLA TYPHIMURIUM, Strain/Indicator: TA98, Metabolic Activation: RAT, LIVER, S-9, AROCLOR 1254 (0.4, 0.8, 1.15 OR 1.5 MG/PLATE), Method: STANDARD PLATE) “active; positive”; (Test System: AMES SALMONELLA TYPHIMURIUM, Strain/Indicator: TA98, Metabolic Activation: RAT, LIVER, S-9, AROCLOR 1254, Method: STANDARD PLATE) “active; positive”.

As for `Cc1cc([N+](=O)[O-])ccc1N`, the mutagenic call (End Point: IN VITRO CHROMOSOMAL ABERRATIONS, Test System: CHL CELLS, Metabolic Activation: NONE) is “active; positive (ploidy changes)”; the mutagenic call (End Point: IN VITRO CHROMOSOMAL ABERRATIONS, Test System: CHL CELLS, Metabolic Activation: RAT, LIVER, S-9, SODIUM PHENOBARBITAL AND 5,6-BENZOFLAVONE) was “inactive; negative; authors report equivocal results for ploidy changes at 0.25 mg/ml and”; the mutagenic call (End Point: IN VITRO CHROMOSOMAL ABERRATIONS, Test System: CHL/IU CELLS, Metabolic Activation: NONE) is “active; positive (numerical aberrations)”; the mutagenic call (End Point: IN VITRO MICRONUCLEUS, Test System: CHL/IU CELLS, Metabolic Activation: NONE) was “inactive; negative”; the mutagenic call (Test System: AMES SALMONELLA TYPHIMURIUM, Strain/Indicator: TA98, Metabolic Activation: RAT, LIVER, S-9, PCB, Method: PREINCUBATION) was “inactive; negative”; the mutagenic call under setting [1] is “inactive; negative”. The mutagenic call runs as follows: (Test System: AMES SALMONELLA TYPHIMURIUM, Strain/Indicator: TA100, Metabolic Activation: RAT, LIVER, S-9, KANECHLOR 500, Method: PREINCUBATION) “inactive; negative”; (Test System: UDS RODENT HEPATOCYTES, Strain/Indicator: THY INCORP (NON-S-PHASE), Metabolic Activation: NONE, Method: AUTORADIOGRAPHY) “inactive; negative”.

In the case of `N#CCc1ccccc1`, the mutagenic call reads like this: (Test System: AMES SALMONELLA TYPHIMURIUM, Strain/Indicator: TA97, Metabolic Activation: HAMSTER, LIVER, S-9, AROCLOR 1254 (10%), Method: PREINCUBATION) “inactive; negative”; (Test System: AMES SALMONELLA TYPHIMURIUM, Strain/Indicator: TA97, Metabolic Activation: HAMSTER, LIVER, S-9, AROCLOR 1254 (30%), Method: PREINCUBATION) “inactive; negative”; (Test System: AMES SALMONELLA TYPHIMURIUM, Strain/Indicator: TA97, Metabolic Activation: NONE, Method: PREINCUBATION) “inactive; negative”; (Test System: AMES SALMONELLA TYPHIMURIUM, Strain/Indicator: TA97, Metabolic Activation: RAT, LIVER, S-9, AROCLOR 1254 (5 OR 30%), Method: PREINCUBATION) “inactive; negative”; (Test System: AMES SALMONELLA TYPHIMURIUM, Strain/Indicator: TA97, Metabolic Activation: RAT, LIVER, S-9, AROCLOR 1254 (10%), Method: PREINCUBATION) “inactive; negative”; (Test System: AMES SALMONELLA TYPHIMURIUM, Strain/Indicator: TA98, Metabolic Activation: HAMSTER, LIVER, S-9, AROCLOR 1254 (10%), Method: PREINCUBATION) “inactive; negative”. Further, the mutagenic call (Test System: AMES SALMONELLA TYPHIMURIUM, Strain/Indicator: TA98, Metabolic Activation: HAMSTER, LIVER, S-9, AROCLOR 1254 (30%), Method: PREINCUBATION) was “inactive; negative”; the mutagenic call under setting [2] is “inactive; negative”; the mutagenic call (Test System: AMES SALMONELLA TYPHIMURIUM, Strain/Indicator: TA98, Metabolic Activation: RAT, LIVER, S-9, AROCLOR 1254 (10%), Method: PREINCUBATION) was “inactive; negative”; the mutagenic call (Test System: AMES SALMONELLA TYPHIMURIUM, Strain/Indicator: TA98, Metabolic Activation: RAT, LIVER, S-9, AROCLOR 1254 (30%), Method: PREINCUBATION) was “inactive; negative”; the mutagenic call (Test System: AMES SALMONELLA TYPHIMURIUM, Strain/Indicator: TA100, Metabolic Activation: HAMSTER, LIVER, S-9, AROCLOR 1254 (10%), Method: PREINCUBATION) is “inactive; negative”; the mutagenic call (Test System: AMES SALMONELLA TYPHIMURIUM, Strain/Indicator: TA100, Metabolic Activation: HAMSTER, LIVER, S-9, AROCLOR 1254 (30%), Method: PREINCUBATION) was “inactive; negative”. In addition, the mutagenic call is, setting by setting: under setting [1], “inactive; negative”; (Test System: AMES SALMONELLA TYPHIMURIUM, Strain/Indicator: TA100, Metabolic Activation: RAT, LIVER, S-9, AROCLOR 1254 (10%), Method: PREINCUBATION) “inactive; negative”; (Test System: AMES SALMONELLA TYPHIMURIUM, Strain/Indicator: TA100, Metabolic Activation: RAT, LIVER, S-9, AROCLOR 1254 (30%), Method: PREINCUBATION) “inactive; negative”; (Test System: AMES SALMONELLA TYPHIMURIUM, Strain/Indicator: TA1535, Metabolic Activation: HAMSTER, LIVER, S-9, AROCLOR 1254 (10%), Method: PREINCUBATION) “inactive; negative”; (Test System: AMES SALMONELLA TYPHIMURIUM, Strain/Indicator: TA1535, Metabolic Activation: HAMSTER, LIVER, S-9, AROCLOR 1254 (30%), Method: PREINCUBATION) “inactive; negative”; (Test System: AMES SALMONELLA TYPHIMURIUM, Strain/Indicator: TA1535, Metabolic Activation: NONE, Method: PREINCUBATION) “inactive; negative”. Also, the mutagenic call runs as follows: (Test System: AMES SALMONELLA TYPHIMURIUM, Strain/Indicator: TA1535, Metabolic Activation: RAT, LIVER, S-9, AROCLOR 1254 (30%), Method: PREINCUBATION) “inactive; negative”; (Test System: AMES SALMONELLA TYPHIMURIUM, Strain/Indicator: TA1537, Metabolic Activation: HAMSTER, LIVER, S-9, AROCLOR 1254 (10%), Method: PREINCUBATION) “inactive; negative”; (Test System: AMES SALMONELLA TYPHIMURIUM, Strain/Indicator: TA1537, Metabolic Activation: HAMSTER, LIVER, S-9, AROCLOR 1254 (30%), Method: PREINCUBATION) “inactive; negative”; under setting [3], “inactive; negative”; (Test System: AMES SALMONELLA TYPHIMURIUM, Strain/Indicator: TA1537, Metabolic Activation: RAT, LIVER, S-9, AROCLOR 1254 (10%), Method: PREINCUBATION) “inactive; negative”; (Test System: AMES SALMONELLA TYPHIMURIUM, Strain/Indicator: TA1537, Metabolic Activation: RAT, LIVER, S-9, AROCLOR 1254 (30%), Method: PREINCUBATION) “inactive; negative”.

As for `O.O.O.O.O.[Cd+2].[Cd+2].[Cl-].[Cl-].[Cl-].[Cl-]`, the mutagenic call was “inactive; negative” (End Point: In vivo micronucleus, Test System: Bone marrow polychromatic erythrocytes, Species: Mouse, Strain/Sex: C57BL/6J/Han/Male, Route: Oral); “inactive; negative” under setting [2]; “inactive; negative” (Test System: AMES SALMONELLA TYPHIMURIUM, Strain/Indicator: TA98, Metabolic Activation: RAT LIVER S-9, PHENOBARBITAL AND BETA-NAPHTHOFLAVONE, Method: PREINCUBATION); “inactive; negative” (Test System: AMES SALMONELLA TYPHIMURIUM, Strain/Indicator: TA100, Metabolic Activation: RAT LIVER S-9, PHENOBARBITAL AND BETA-NAPHTHOFLAVONE, Method: PREINCUBATION); “inactive; negative” (Test System: AMES SALMONELLA TYPHIMURIUM, Strain/Indicator: TA1535, Metabolic Activation: RAT LIVER S-9, PHENOBARBITAL AND BETA-NAPHTHOFLAVONE, Method: PREINCUBATION); “inactive; negative” under setting [3]. For the same compound, the mutagenic call reads like this: (Test System: AMES SALMONELLA TYPHIMURIUM, Strain/Indicator: TA1537, Metabolic Activation: RAT LIVER S-9, PHENOBARBITAL AND BETA-NAPHTHOFLAVONE, Method: PREINCUBATION) “inactive; negative”; (Test System: AMES SALMONELLA TYPHIMURIUM, Strain/Indicator: TA1538, Metabolic Activation: NONE, Method: PREINCUBATION) “inactive; negative”; (Test System: AMES SALMONELLA TYPHIMURIUM, Strain/Indicator: TA1538, Metabolic Activation: RAT LIVER S-9, PHENOBARBITAL AND BETA-NAPHTHOFLAVONE, Method: PREINCUBATION) “inactive; negative”; (Test System: E.COLI, Strain/Indicator: WP2UVRA, Metabolic Activation: NONE, Method: PREINCUBATION) “inactive; negative”; (Test System: E.COLI, Strain/Indicator: WP2UVRA, Metabolic Activation: RAT LIVER S-9, PHENOBARBITAL AND BETA-NAPHTHOFLAVONE, Method: PREINCUBATION) “inactive; negative”.
